The subject of one series is plasma glucose levels. On the set-up: method as in PMID 23597793, PMID 23453304. As to conditions: non-insulin dependent diabetes mellitus rat model, 7 h post-administration, Compound 1 at 50 mg/kg single dose; cited from earlier work.
A short description of series [1]: Bioavailability / pharmacokinetic study, oral and intravenous administration. It is filed as in vivo, Wistar rats. On the set-up: average clearance (CL): unit not given here. Conditions: for half-life: read-out: T1/2el (converted). The protocol: Male Wistar rats weighing 250–300 g were used for pharmacokinetic evaluation. Animals were individually identified by tail markings and acclimated to the study environment for seven days prior to the administration of the dose. Animals were kept on a 12 h light/dark cycle except when this was interrupted for study procedures. Animals were kept at average room temperature, which was regulated in the range of 18 to 29 °C. The animals were fasted prior to dose administration, and had access to water ad libitum.
Rats were anesthetized with ether and cannulated via the caudal vein using polyethylene tubing with an internal diameter of 0.023 inches, and an outer diameter of 0.038 inches (Becton Dickinson Clay Adams).
Compound 1 was prepared with Cremophore (10%) in physiologic saline solution and administered orally in a 50 mg/kg dose, and via intravenous bolus (50 mg/kg). Study was conducted in quintuplicate.
After dosing, serial blood samples were collected (0.2 mL) 0, 0.083, 0.16, 0.25, 0.33, 0.50, 0.75, 1.0, 1.5, 2.0, 3.0, 4.0, 6.0, and 8 h after both oral and intravenous administration using heparinized (20 UI) tubes, and were centrifuged at 5000× g for 10 min, with the plasma harvested and analyzed by HPLC using the previously validated method.
The pharmacokinetic parameters of Compound 1 were obtained via non-compartmental analysis using PK software (PKSolver). The STATA statistical program, version 12, was used for the comparison of the following: the pharmacokinetic parameters obtained via both administration pathways (Cmax and Tmax); the elimination rate constant (kel); the biological half-life; the area under the curve (AUC0–t); the area under the curve from zero to infinity (AUC0–∞); volume of distribution (Vd); clearance (Cl); and, absolute bioavailability (F).

Series [2] is described as follows: Permeability assay, everted rat gut model. In kind it is in vitro ADME, Wistar rats. Conditions: for Papp at 120 min, 100 μM: male, Wistar, rat, everted rat gut, 37 °C, A-B. The protocol: Male Wistar rats weighing 200–250 g were used in this research. Everted intestinal sacs were prepared by quickly removing the small intestine from starved rats killed under ether anesthesia. All experiments were carried out after pre-incubation at 37 ± 0.5 °C, with the duodenum and jejunum then excised, flushed-through several times with saline solution at room temperature, and placed immediately into simulated intestinal fluid (SIF). The intestine was gently everted over a steel rod and filled with fresh SIF. The sacs were preincubated in oxygenated buffer solution for 5 min and then placed in 100 mL of oxygenated SIF solution containing 0.0001 M (100 μM) of Compound 1 at 37 °C. Oxygen was bubbled with a pump to maintain viable tissue.
The everted intestinal sac was filled with 1.5 mL of SIF solution, while a test compound solution (0.0001 M) remained external to the everted sac. […] 300 μL samples were collected from inside the sac with a metallic cannula at 5, 10, 15, 30, 45, 60, 90, and 120 min (apical-basolateral transport A-B), after which a medium replacement was made. Both an initial and final sample of the outside solution were analyzed by HPLC.
The apparent intestinal permeability (Papp) was calculated according to Equation (2): (2) Papp=V/(A∗Co)dC/dt where Papp = Apparent Permeability (cm/s), V = Intestinal Volume (mL), A = Surface Area (cm^2), dC/dt = Concentration Gradient, and, Co = Initial Concentration (μg/mL).

Series [3] is described as follows: Apparent partition coefficient (octanol-water log D, shake-flask). It is filed as physicochemical. As to conditions: n-octanol/phosphate buffer. The protocol:
The octanol-water distribution coefficient was determined using the shake-flask method. The two phases were mutually saturated by shaking for 15 min. Phosphate buffers were used as the aqueous phase for the pH range 1.2 to 13. 5 mL portions of different buffer solutions (pH 1.2 to 13) containing 100 μg/mL of Compound 1 were mixed with 2.5 mL of n-Octanol. The mixture was shaken for 30 min, centrifuged at 8000× g for 10 min, after which the aqueous and organic phases were separated. Aqueous samples were analyzed at 222 nm using a validated spectrophotometric method (5–200 μg·mL^−1). The distribution coefficient (log D) was calculated according to Equation (1) for each pH value: (1) Log D=log[Compound]org/[Compound ]aq where [Compound]org is the drug concentration in the organic phase (determined by mass balance) and [Compound]aq is the drug concentration in the aqueous phase for each buffer solution. Every experiment was evaluated in triplicate.

Series [4] relates to 11β-hydroxysteroid dehydrogenase type 1 (11β-HSD1). Details: method as in PMID 23597793. Conditions: at 10 μM, HEK293 cells; cited from earlier work.
Series [5] in a line: pKa determination via potentiometric analysis. It is filed as physicochemical. Conditions: methanol/aqueous solution of ionic strength 0.02 M; Mean (±S.D.), potentiometric titration, triplicate; read-out: pKa1. The protocol: The determination of pKa was undertaken as described by Babic A. et al.. Compound 1 was prepared by weighing 0.001 equivalents, which were dissolved in the minimum volume of methanol, to which aqueous solution with an ionic strength of 0.02 M was added to obtain a final concentration for Compound 1 of 0.006 M. It was titrated with NaOH 0.01 N, which had been previously evaluated with an ionic strength of 0.02 M using Logger Pro 3.5.0 software (Vernier Software & Technology, Beaverton, OR, USA). The study was conducted in triplicate, determining the final points using the criteria from the first and second derivative test.

The conditions of series [6]: reported in the rat, oral; cited from earlier work.
The subject of another series is rat. Conditions: in vivo, po; cited from earlier work.
Setting [7] is: Compound 1, intravenous, 50 mg/kg, Wistar rat, mean.
Where [8] appears, read: Compound 1, oral, 50 mg/kg, Wistar rat, mean.
The mark [9] stands for this setting: male, plasma, Compound 1, intravenous, 50 mg/kg, Wistar rat, mean.
[10] abbreviates: male, plasma, Compound 1, oral, 50 mg/kg, Wistar rat, mean.
[11] abbreviates: duodenum, read-out: Papp Duodenum.
Setting [12] is: jejunum, read-out: Papp Jejunum.

We go through four compounds from article PMC6155746 (Molecules : A Journal of Synthetic Chemistry and Natural …, 2017).

The structures appear in SMILES notation. Several values for one entry are separate records, joined by “and”; a condition that tells them apart may be missing. Identical values can stand only once. Like-named read-outs stand apart in the source and are kept apart here.

Turning to `COc1ccc(Cl)cc1C(=O)NCCc1ccc(S(=O)(=O)NC(=O)NC2CCCCC2)cc1` [glibenclamide, reference compound], the “reduction in glucose levels in the plasma” value in the series on plasma glucose levels is 40%.
Take `CC(C)(Oc1ccc(Cl)cc1)C(=O)Nc1nnn[nH]1` [Compound 1, 2-(4-chlorophenoxy)-2-methyl-N-(1H-tetrazol-5-yl) propanamide]: the average ABC0–α in series [1] (Compound 1, intravenous) came out at 38800 ng·h/mL. In series [1] (setting [7]), the “ABC0–t” value turned out to be 30.5 μg/mL·h, the “ABC0–α” value stood at 38.8 μg/mL·h and the Cl turned out to be 484.5 mL/h. In series [1] (Compound 1, oral), the average ABC0–α is 2580 ng·h/mL and the “average clearance (CL)” value is 751.2. In series [1] (setting [8]), the “ABC0–t” value stood at 2.37 μg/mL·h, the “ABC0–α” value amounted to 2.58 μg/mL·h, the Cl stood at 751.2 mL/h and the Ka worked out at 3.05 h⁻¹. Moreover, the clearance in series [1] (male, Wistar, rat, plasma, 50 mg/kg, Compound 1, intravenous, read-out: average clearance (CL) (converted)) is 8.07 mL/min. Moreover, the half-life in series [1] (male, Wistar, rat, plasma, iv, 50 mg/kg, Compound 1, intravenous, 50 mg/kg, Wistar rat, mean) was 42.6 min. Moreover, the half-life in series [1] (male, Wistar, rat, plasma, po, 50 mg/kg, Compound 1, oral, 50 mg/kg, Wistar rat, mean) is around 22.8 min. For the same compound, in series [1] (setting [9]), the Vd was 0.4 L and 1.3 L/kg; the k el is 0.000336 s⁻¹. The bioavailability in series [1] (male, plasma, Compound 1, oral vs intravenous, 50 mg/kg, Wistar rat, mean) turned out to be 10.4%. Besides, in series [1] (setting [10]), the peak level (Cmax) was 3570 ng/mL, the Tmax is 19.8 min and the k el is 0.000503 s⁻¹. Further, in series [2] (compared to the standards naproxen and amoxicillin), the permeability classification entry is reported as “low permeability”. Moreover, the Papp at 120 min, 100 μM in series [2] (setting [11]) was found to be 8.73 ×10⁻⁶ cm/s. The Papp at 120 min, 100 μM in series [2] (setting [12]) is 16.2 ×10⁻⁶ cm/s. The “log D” value in series [3] (pH 1 to 5) is “positive”. In series [3] (pH 7), the “Log D” value was “below zero”. Also, the “inhibition of 11β-HSD1” value in series [4] is on record as 51.17%. In the series with plasma glucose levels, the “reduction in glucose levels in the plasma” value is listed as “up to 77%”. The pKa in series [5] is 4.43.
For the compound `CC1(C)S[C@@H]2[C@H](NC(=O)[C@H](N)c3ccc(O)cc3)C(=O)N2[C@H]1C(=O)O` [Amoxicillin, amoxicillin, reference compound], the Papp at 120 min, 100 μM in series [2] (setting [11]) came to 8.52 ×10⁻⁶ cm/s; in series [2] (setting [12]) it was 10 ×10⁻⁶ cm/s.
In the case of `CC(C)(Oc1ccc(Cl)cc1)C(=O)O` [Compound 2, Clofibric acid], in series [6], the “average lifetime (half-life) of clofibric acid” value is 420 to 480 min. The DL50 with rat is on record as 940 mg/kg.
